# According to PubChem BioAssay (NCI):
#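 Protocol summary: plate cells (96-well), add compound at 5 concentrations, incubate 48 h, interpolate endpoints linearly. Here, GI50 denotes the concentration required for 50% inhibition of growth. TGI is the concentration that stops growth completely.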
# What was measured:
# Assay in all cases: NCI-60 cell line screen, 48 h
# COLO 205 colon = test system: COLO 205 colon
# EKVX NSCLC = test system: EKVX NSCLC
# HCT-15 colon = test system: HCT-15 colon
# MCF7 breast = test system: MCF7 breast
# NCI/ADR-RES ovarian = test system: NCI/ADR-RES ovarian
# SF-295 CNS = test system: SF-295 CNS
# SK-MEL-28 melanoma = test system: SK-MEL-28 melanoma
# SK-MEL-5 melanoma = test system: SK-MEL-5 melanoma
# SR leukemia = test system: SR leukemia
# TK-10 renal = test system: TK-10 renal
SMILES,TGI (COLO 205 colon) [µM],TGI (EKVX NSCLC) [µM],TGI (HCT-15 colon) [µM],TGI (MCF7 breast) [µM],TGI (NCI/ADR-RES ovarian) [µM],TGI (SF-295 CNS) [µM],TGI (SK-MEL-28 melanoma) [µM],TGI (SK-MEL-5 melanoma) [µM],GI50 (SR leukemia) [µM],TGI (SR leukemia) [µM],TGI (TK-10 renal) [µM],GI50 (COLO 205 colon) [µM],GI50 (MCF7 breast) [µM],GI50 (SF-295 CNS) [µM]
CN(C)CCCNC(=O)c1cc(NC(=O)c2cc(NC(=O)CCCn3c4ccccc4c4ccccc43)cn2C)cn1C,7.88,46.2,> 75.5,39,53.2,> 69.7,92,19.6,2.24,4.82,39.3,–,–,–
COC(=O)Cc1ccc2c(cnn2-c2ccccc2)c1OC,> 10,> 10,> 10,> 10,> 10,> 10,> 10,> 10,–,> 10,> 10,–,–,–
COc1ccc2nc(/C(N)=C\C#N)ccc2c1,> 100,> 100,> 100,> 100,> 100,> 100,> 100,> 100,–,> 100,> 100,–,–,–
Cc1cc2c(O)c(c1)CN(CC(=O)O)Cc1cc(C)cc(c1O)CN(CC(=O)O)Cc1cc(C)cc(c1O)CN(CC(=O)O)C2,> 100,> 100,> 100,> 100,> 100,> 100,> 100,> 100,–,> 100,> 100,–,–,–
C=C(C)OCOCCOC,> 100,> 100,> 100,> 100,> 100,> 100,> 100,> 100,–,> 100,> 100,–,–,–
CCC(O)(Cc1ccc(OC)cc1)c1ccc(OC)cc1 (stereo not drawn),> 100,> 100,> 100,> 100,> 100,> 100,–,> 100,–,> 100,> 100,–,–,–
O=C1C=CC(=O)c2c(O)c(N3CCC[C@H]3CO)c(Cl)c(O)c21,3.22,> 10,4.15,3.66,4.06,> 10,2.23,3.11,–,1.4,5.57,–,–,–
C[C@]12CCC(=O)[C@@H](CCC3=CC(=O)C=CC3=O)[C@@H]1CCC2=O,31.2,47.5,> 31.6,37.2,> 100,36.7,37.1,20.7,–,> 100,30.4,–,–,–
COc1cc2cc(C(=O)N3C[C@H](CCl)c4c3cc(N)c3ccccc43)[nH]c2c(OC)c1OC,< 0.005,0.0462,> 50,13,7.69,> 50,–,< 0.005,0.005,> 50,10.3,< 0.005,0.005,0.005
NC(=O)c1csc(C2(O)COC(CO)C2O)n1 (stereo not drawn),> 100,> 100,> 100,> 100,> 100,> 100,> 100,> 100,–,> 100,> 100,–,–,–
N#CC1(O)CCCCCCCCCCC1,> 100,> 100,> 100,> 100,> 100,> 100,> 100,> 100,–,> 100,> 100,–,–,–
COc1ccccc1CN=C1Nc2ccncc2S(=O)(=O)N1c1ccccc1,> 100,> 100,> 100,> 100,> 100,> 100,> 100,> 100,–,> 100,> 100,–,–,–
CC(C)C(CC(=O)OCC(CO)OC(=O)CC(C(C)C)C(C)C)C(C)C (stereo not drawn),20,27,30.7,33.5,27.3,21.1,30.3,24.7,–,> 100,26.3,–,–,–
Cc1ccc(C(=O)N/N=C(\N=Nc2ccccc2)c2ccc(N(C)C)cc2)cc1,> 100,> 100,> 100,> 100,> 100,> 100,> 100,> 100,–,> 100,> 100,–,–,–
Cn1c(=O)c(-c2ccccc2)c(O)c2ccccc21,> 100,> 100,> 100,> 100,> 100,> 100,> 100,> 100,–,> 100,> 100,–,–,–
CN(C)CC1CCC/C(=C\c2ccc(OC(=O)c3ccc(Cl)cc3)cc2)C1=O (stereo not drawn),4.81,6.16,3.3,1.58,4.99,9.84,8.52,12.1,–,> 100,5.19,–,–,–
COc1ccccc1C1Nn2c(nc3ccccc3c2=O)N1c1ccc(C)cc1 (stereo not drawn),21.2,34.6,16.9,26.3,23.6,17.8,20.3,22.5,–,6.43,22.7,–,–,–
CCn1c2ccc(C(=O)CCCN3CCCCC3)cc2c2cc(C(=O)CCCN3CCCCC3)ccc21,15.7,15.8,5.45,4.94,13.1,10.7,34.8,2.92,–,5.31,15.9,–,–,–
